Tests used:
E. coli K12 PBP1a/b = test: Bocillin FL competition binding assay, PBP1a/1b combined; set-up: species or system Escherichia coli K12; conditions: 15 min pre-incubation, PBP 1a/1b combined
Experimental: (§1) To determine the ability of test compounds to bind Penicillin Binding Proteins (PBPs), a competition binding assay using Bocillin FL (fluorescent derivative of penicillin V) was adapted from the classical method used to assess PBP potency of beta-lactams.
(§2) Penicillin binding proteins were isolated from Escherichia coli K12 by growth of Escherichia coli K12 from a single colony in 4 L of Luria-Bertani (LB) broth at 35° C. and 250 rpm to an OD600 nm of 0.5. The cells were harvested by centrifugation at 7,000×g for 10 min. at 4° C. Cells were resuspended and washed in 50 mM potassium phosphate pH 7.5. The cells were re-suspended in sonication buffer [50 mM Tris-HCl pH 7.5, 1 mM MgCl2, 1 mM beta-mercaptoethanol, and 5 μg/mL DNAse I] and sonicated by 4 passes of 30 seconds at 45 W on ice. The sample was clarified by centrifugation at 3,000×g to remove cell debris and unbroken cells and supernatant containing the membrane proteins was retained. The membrane proteins including the PBPs were further purified from soluble constituents by an ultracentrifugation step at 100,000×g for 30 min. at 4° C. The membrane proteins are washed twice with 10 mM sodium phosphate pH 7, resuspended in a volume of 5 mL, quantitated by BCA assay, adjusted to […] and frozen at −80° C. until use.
(§3) The adapted Bocillin FL competition binding method described herein incorporates a 15 min. pre-incubation of test compound with isolated PBPs to attempt to balance the difference in mechanism of inhibition between beta-lactams (largely irreversible covalent bond to active site Serine) and the boron-containing PBP inhibitor test compounds (reversible covalent bond to active site Serine). Briefly, 50 μL reactions consisted of 100 μg's of total membrane protein extracts containing PBPs incubated with a dilution series of test compound ranging from 0.005 μg/mL to 2,480 μg/mL in 10 mM sodium phosphate pH7 containing 350 mM NaCl. Thirty minute reactions at 35° C. were initiated by addition of […] Bocillin FL, quenched by addition of SDS-PAGE loading buffer containing sodium dodecyl sulfate (SDS) and heated for 15 minutes at 95° C. to denature proteins in preparation for SDS-polyacrylamide gel electrophoresis. The Bocillin FL labeled PBPs are then separated by SDS-PAGE in Novex NuPage 10% Bis-Tris pre-cast gels (Invitrogen). The SDS-PAGE gel, post-electrophoresis, is then washed in water to remove excess SDS for 10 minutes at room temperature and placed on the scanning bed of a GE Healthcare/Amersham Biosciences Storm 860 fluorescence scanner. The excitation wavelength is in the blue spectrum at 450 nm and the emission at 520 nm is captured by the instrument. Effective PBP inhibitors are detected by a reduction in Bocillin FL labeling of the particular PBP over the dose range of test compound in a dose-responsive manner. High molecular weight PBP 1a/1b are not resolved by these gels, thus we report HMW PBP binding results in μg/mL for PBPs 1a/1b combined as well as for PBP2 and PBP3.
(§4) Representative results are shown in Table 2, where A represents a potency of >1000 μg/mL, B represents a potency between 64 and 1000 μg/mL inclusive, and C represents a potency of <64 μg/mL. NT=Not Tested.

E. coli PBP2 = molecular target: T1, E. coli PBP2 (Escherichia coli, UniProt P0AD65); test: Bocillin FL competition binding assay, PBP2; set-up: species or system Escherichia coli K12; conditions: 15 min pre-incubation
T1 construct: 100 μg's of total membrane protein extracts containing PBPs; endogenous in cells; host or cells: Escherichia coli K12, membrane protein fraction
Experimental: as §1, §2, §3, §4

E. coli PBP3 = molecular target: T2, E. coli PBP3 (Escherichia coli, UniProt P0AD68); test: Bocillin FL competition binding assay, PBP3; set-up: species or system Escherichia coli K12; conditions: 15 min pre-incubation
T2 construct: 100 μg's of total membrane protein extracts containing PBPs; endogenous in cells; host or cells: Escherichia coli K12, membrane protein fraction
Experimental: as §1, §2, §3, §4

S. aureus ATCC 29213 = test: Broth microdilution MIC assay, S. aureus; format: cell-based; conditions: Staphylococcus aureus, ATCC29213; broth microdilution, 16-20 hours at 37° C.; read-out: S. aureus 29213 MIC
Method in brief: (§5)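 Two-fold serial dilutions tested per CLSI in cation-supplemented Mueller-Hinton broth against S. aureus ATCC 29213 and hyper-permeable E. coli 901C; inoculum 5×10^5 CFU/mL from 3-5 h log-phase culture. Incubated 16-20 h at 37° C; MIC read visually as lowest concentration with no growth.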

[1] = tested on: hyper-permeable E. coli 901C; test: Broth microdilution MIC assay, hyper-permeable E. coli; format: cell-based; conditions: Escherichia coli, read-out: E. coli 901C MIC
Method in brief: as §5

T1 sequence (P0AD65 whole entry): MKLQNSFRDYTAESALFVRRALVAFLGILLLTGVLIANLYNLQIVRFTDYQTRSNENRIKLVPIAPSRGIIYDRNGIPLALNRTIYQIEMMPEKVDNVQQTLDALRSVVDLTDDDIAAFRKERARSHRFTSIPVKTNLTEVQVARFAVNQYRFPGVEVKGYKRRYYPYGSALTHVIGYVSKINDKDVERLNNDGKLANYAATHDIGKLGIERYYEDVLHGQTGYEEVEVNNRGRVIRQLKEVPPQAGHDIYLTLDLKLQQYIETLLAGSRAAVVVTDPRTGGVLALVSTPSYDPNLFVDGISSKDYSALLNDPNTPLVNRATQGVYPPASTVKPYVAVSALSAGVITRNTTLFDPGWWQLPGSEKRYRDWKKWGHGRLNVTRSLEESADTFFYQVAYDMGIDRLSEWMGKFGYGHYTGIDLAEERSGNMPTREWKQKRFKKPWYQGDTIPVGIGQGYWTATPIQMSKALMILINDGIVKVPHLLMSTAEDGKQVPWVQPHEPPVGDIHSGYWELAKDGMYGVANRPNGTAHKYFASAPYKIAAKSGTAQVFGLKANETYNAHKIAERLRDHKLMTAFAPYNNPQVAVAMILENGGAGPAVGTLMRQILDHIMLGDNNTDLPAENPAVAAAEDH
T2 sequence (P0AD68 1-577): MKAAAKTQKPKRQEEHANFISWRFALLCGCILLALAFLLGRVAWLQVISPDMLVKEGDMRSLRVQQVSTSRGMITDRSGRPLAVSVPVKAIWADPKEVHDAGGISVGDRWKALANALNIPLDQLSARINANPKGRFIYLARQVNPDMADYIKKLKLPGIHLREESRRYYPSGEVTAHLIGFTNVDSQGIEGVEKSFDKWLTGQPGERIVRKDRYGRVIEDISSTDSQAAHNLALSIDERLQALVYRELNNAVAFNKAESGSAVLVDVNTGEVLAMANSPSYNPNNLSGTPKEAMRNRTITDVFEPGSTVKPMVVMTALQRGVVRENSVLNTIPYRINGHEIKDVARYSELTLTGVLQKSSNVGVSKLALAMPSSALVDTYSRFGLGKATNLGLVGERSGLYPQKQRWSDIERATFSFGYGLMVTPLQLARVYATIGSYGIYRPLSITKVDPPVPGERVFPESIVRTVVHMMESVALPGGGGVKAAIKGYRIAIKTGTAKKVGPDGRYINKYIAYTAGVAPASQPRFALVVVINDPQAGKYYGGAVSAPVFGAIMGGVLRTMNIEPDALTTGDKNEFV

Compound	E. coli K12 PBP1a/b Potency (E. coli K12 PBP1a/b)	E. coli PBP2 Potency (E. coli PBP2)	E. coli PBP3 Potency (E. coli PBP3)	MIC (S. aureus ATCC 29213)	MIC [1]
CN(C)C(=O)CO/N=C(\C(=O)N[C@H]1Cc2cccc(C(=O)O)c2OB1O)c1csc(N)n1 [Example 60, (R,Z)-3-(2-(2-aminothiazol-4-yl)-2-((2-(dimethylamino)-2-oxoethoxy)imino)acetamido)-2-hydroxy-3,4-dihydro-2H-benzo[e][1,2]oxaborinine-8-carboxylic Acid]	B (B represents a potency between 64 and 1000 μg/mL inclusive)	C (C represents a potency of <64 μg/mL)	C (C represents a potency of <64 μg/mL)	> 128 µg/mL	< 64 µg/mL
N#CC1CCC(NC(=O)CO/N=C(\C(=O)N[C@H]2Cc3cccc(C(=O)O)c3OB2O)c2csc(N)n2)CC1 (stereo partly drawn) [Example 62, (R)-3-((Z)-2-(2-aminothiazol-4-yl)-2-((2-(((1r,4R)-4-cyanocyclohexyl)amino)-2-oxoethoxy)imino)acetamido)-2-hydroxy-3,4-dihydro-2H-benzo[e][1,2]oxaborinine-8-carboxylic Acid]	B (B represents a potency between 64 and 1000 μg/mL inclusive)	B (B represents a potency between 64 and 1000 μg/mL inclusive)	C (C represents a potency of <64 μg/mL)	> 128 µg/mL	< 64 µg/mL
N=C(NCCN)c1ccc(OCCO/N=C(\C(=O)N[C@H]2Cc3cccc(C(=O)O)c3OB2O)c2csc(N)n2)cc1 [Example 64, (R,Z)-3-(2-((2-(4-(N-(2-aminoethyl)carbamimidoyl)phenoxy)ethoxy)imino)-2-(2-aminothiazol-4-yl)acetamido)-2-hydroxy-3,4-dihydro-2H-benzo[e][1,2]oxaborinine-8-carboxylic Acid]	C (C represents a potency of <64 μg/mL)	B (B represents a potency between 64 and 1000 μg/mL inclusive)	C (C represents a potency of <64 μg/mL)	> 128 µg/mL	< 64 µg/mL
NCCCC[C@H](NC(=O)CO/N=C(\C(=O)N[C@H]1Cc2cccc(C(=O)O)c2OB1O)c1csc(N)n1)C(=O)O [Example 65, (R)-3-((Z)-2-((2-(((S)-5-amino-1-carboxypentyl)amino)-2-oxoethoxy)imino)-2-(2-aminothiazol-4-yl)acetamido)-2-hydroxy-3,4-dihydro-2H-benzo[e][1,2]oxaborinine-8-carboxylic]	C (C represents a potency of <64 μg/mL)	B (B represents a potency between 64 and 1000 μg/mL inclusive)	C (C represents a potency of <64 μg/mL)	> 128 µg/mL	< 64 µg/mL
NCCCC[C@@H](NC(=O)CO/N=C(\C(=O)N[C@H]1Cc2cccc(C(=O)O)c2OB1O)c1csc(N)n1)C(=O)O [Example 66, (R)-3-((Z)-2-((2-(((R)-5-amino-1-carboxypentyl)amino)-2-oxoethoxy)imino)-2-(2-aminothiazol-4-yl)acetamido)-2-hydroxy-3,4-dihydro-2H-benzo[e][1,2]oxaborinine-8-carboxylic Acid]	C (C represents a potency of <64 μg/mL)	B (B represents a potency between 64 and 1000 μg/mL inclusive)	C (C represents a potency of <64 μg/mL)	> 128 µg/mL	< 64 µg/mL
NCCCCCNC(=O)CO/N=C(\C(=O)N[C@H]1Cc2cccc(C(=O)O)c2OB1O)c1csc(N)n1 [Example 67, (R,Z)-3-(2-((2-((5-aminopentyl)amino)-2-oxoethoxy)imino)-2-(2-aminothiazol-4-yl)acetamido)-2-hydroxy-3,4-dihydro-2H-benzo[e][1,2]oxaborinine-8-carboxylic Acid]	B (B represents a potency between 64 and 1000 μg/mL inclusive)	B (B represents a potency between 64 and 1000 μg/mL inclusive)	C (C represents a potency of <64 μg/mL)	> 128 µg/mL	< 64 µg/mL
CNC(=O)C(C)(C)O/N=C(\C(=O)N[C@H]1Cc2cccc(C(=O)O)c2OB1O)c1csc(N)n1 [Example 69, (R,Z)-3-(2-(2-aminothiazol-4-yl)-2-(((2-methyl-1-(methylamino)-1-oxopropan-2-yl)oxy)imino)acetamido)-2-hydroxy-3,4-dihydro-2H-benzo[e][1,2]oxaborinine-8-carboxylic Acid]	C (C represents a potency of <64 μg/mL)	C (C represents a potency of <64 μg/mL)	C (C represents a potency of <64 μg/mL)	> 128 µg/mL	< 64 µg/mL
CNC(=O)C(C)O/N=C(\C(=O)N[C@H]1Cc2cccc(C(=O)O)c2OB1O)c1csc(N)n1 (stereo partly drawn) [Example 70, (3R)-3-((Z)-2-(2-aminothiazol-4-yl)-2-(((1-(methylamino)-1-oxopropan-2-yl)oxy)imino)acetamido)-2-hydroxy-3,4-dihydro-2H-benzo[e][1,2]oxaborinine-8-carboxylic Acid]	C (C represents a potency of <64 μg/mL)	C (C represents a potency of <64 μg/mL)	C (C represents a potency of <64 μg/mL)	> 128 µg/mL	< 64 µg/mL
CC(O/N=C(\C(=O)N[C@H]1Cc2cccc(C(=O)O)c2OB1O)c1csc(N)n1)C(=O)O (stereo partly drawn) [Example 71, (3R)-3-((Z)-2-(2-aminothiazol-4-yl)-2-((1-carboxyethoxy)imino)acetamido)-2-hydroxy-3,4-dihydro-2H-benzo[e][1,2]oxaborinine-8-carboxylic Acid]	C (C represents a potency of <64 μg/mL)	C (C represents a potency of <64 μg/mL)	C (C represents a potency of <64 μg/mL)	> 128 µg/mL	< 64 µg/mL
CC(C)(O/N=C(\C(=O)N[C@H]1Cc2cccc(C(=O)O)c2OB1O)c1csc(N)n1)C(N)=O [Example 72, (R,Z)-3-(2-(((1-amino-2-methyl-1-oxopropan-2-yl)oxy)imino)-2-(2-aminothiazol-4-yl)acetamido)-2-hydroxy-3,4-dihydro-2H-benzo[e][1,2]oxaborinine-8-carboxylic Acid]	C (C represents a potency of <64 μg/mL)	C (C represents a potency of <64 μg/mL)	C (C represents a potency of <64 μg/mL)	> 128 µg/mL	< 64 µg/mL
CC(O/N=C(\C(=O)N[C@H]1Cc2cccc(C(=O)O)c2OB1O)c1csc(N)n1)C(N)=O (stereo partly drawn) [Example 73, (3R)-3-((Z)-2-(((1-amino-1-oxopropan-2-yl)oxy)imino)-2-(2-aminothiazol-4-yl)acetamido)-2-hydroxy-3,4-dihydro-2H-benzo[e][1,2]oxaborinine-8-carboxylic Acid]	C (C represents a potency of <64 μg/mL)	C (C represents a potency of <64 μg/mL)	C (C represents a potency of <64 μg/mL)	> 128 µg/mL	< 64 µg/mL
